Earlier results in US11077099B2, “Oral tablet formulation of lenalidomide” (SAMYANG HOLDINGS CORPORATION, priority 2016, dated 2021).

System: multiple myeloma
Details: combination of lenalidomide and dexamethasone; patients with relapses or refractory disease

## Nc1cccc2c1CN(C1CCC(=O)NC1=O)C2=O (centres unmarked) [lenalidomide]
  disease-free survival time: 13.4 months
  overall survival: 38 months
